Experimental data reported in US20230406837A1, “SULFAMATE MODULATORS OF PIN1 ACTIVITY AND USES THEREOF” (Yeda Research and Development Co., Ltd., priority 2022, published 2023).
Entries after “also recorded” stand apart in the source; their conditions may differ. Each block holds one molecule with its values, some of them ahead of it.

Legend:
[1] = GSH consumption (reactivity) assay by LC/MS; details: for reactivity to GSH relative to chloroacetamide (1a): 5 mM GSH, 200 μM electrophile, pH 8, 14° C.; for covalent bond formation with GSH: assay conditions or temperatures up to 37° C. for 24 h
Mino cells = experiment: In situ proteomic labeling with alkyne probes, in-gel fluorescence; format: cell-based; details: 2 h
Source text: FIGS. 5A-5C: α-sulfamate acetamide 1a-aj, and 2a-2c can show up to two orders of magnitude less reactivity towards GSH than chloroacetamide. FIG. 5A: Chemical structures of model α-sulfamate/sulfonate/sulfone acetamides. FIG. 5B: Half-life (t1/2) of the model compounds (1a-1j) assessed by GSH consumption assay via LC/MS (FIG. 4B). FIG. 5C: In situ proteomic labeling with alkyne probes (2a-2c). […] A band that is selectively detected only by compound 2a is indicated by *.
Sulfamate acetamides show attenuated and tunable proteomic reactivity. To assess proteomic selectivity in cells, two sulfamate acetamides (2a and 2b) and a chloroacetamide (2c) with an alkyne functionality have been synthesized (FIG. 3 and FIG. 4A). Mino cells were treated for two hours with either DMSO or 2a-c. Then, the cells were lysed, labeled the alkynes via copper-catalyzed “click chemistry” (CuAAC) with TAMRA-azide, and imaged the adducts via in-gel fluorescence (FIG. 4C). Similar to their reactivity pattern in the GSH reactivity assay, these compounds labeled various amounts of proteins under cellular conditions.

[2] = Buffer stability assay (hydrolysis by LC/MS); format: physicochemical; details: for hydrolysis in PBS buffer (FIG. 13): 100 μM, pH 8, 37° C. for four days; for hydrolysis in PBS buffer: pH 8, 37° C., after 2 days
Experimental: FIG. 8: Buffer stability of model compounds. […] The percentage of hydrolysis was quantified using LC/MS at a wavelength of 220 nm.
FIG. 13: Sulfonate and sulfamate compounds. […] For compounds Sulfopin, 4a, and 4b, spectra at 220 nm were taken to show the peaks. […] “#” refers to hydrolysis product “*” refers to unidentified peak.
Reaction mixtures were kept at 37° C. with shaking.

Pin1 [3] = molecular target: T1, Pin1 (Homo sapiens, UniProt Q13526); experiment: In-vitro Pin1 covalent labeling by intact protein LC/MS; format: binding; design: The catalytic domain of Pin1 (2 μM) in 20 mM Tris, 75 mM NaCl, pH 7.5 was incubated with 2 μM Sulfamate; made in house; details: 2 μM compound, 2 μM Pin1, pH 7.5, 1 h, 25° C.
Experimental: Pin1 was expressed and purified as previously reported^38. The catalytic domain of Pin1 (2 μM) in 20 mM Tris, 75 mM NaCl, pH 7.5 was incubated with 2 μM Sulfamate (4a-4g) for 1 h at 25° C.
The reaction mixtures, at room temperature for various times, were injected into the LC/MS. For data analysis, the raw spectra were deconvoluted using a 20000:40000 Da (For Pin1, 10000:30000) window and 1 Da resolution. The labeling percentage for a compound was determined as the labeling of a specific compound (alone or together with other compounds) divided by the overall detected protein species.
Initially, these compounds (4a-4g; 2 μM) were incubated with Pin1 (2 μM; […] Tris buffer; pH 7.5, 1 h; 25° C.) to check covalent labeling by intact protein MS (FIG. 11B,C; FIG. 10).
Target sequence in this assay (Q13526 52-163 limits assumed): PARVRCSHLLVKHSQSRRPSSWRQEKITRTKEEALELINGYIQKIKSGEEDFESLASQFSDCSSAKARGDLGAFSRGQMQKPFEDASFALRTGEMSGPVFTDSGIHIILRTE

[4] = DTNB thiol reactivity assay; format: physicochemical; details: 200 μM compound, pH 7.4, 37° C.
Experimental: The compound 5,5′-dithio-bis(2-nitrobenzoic acid) (DTNB; 50 μM) was incubated with 200 μM tris(2-carboxyethyl)phosphine (TCEP) in 20 mM sodium phosphate buffer pH 7.4 and 150 mM NaCl for 5 min at room temperature, to obtain TNB^−2. […] UV absorbance was acquired every 15 min for 7 h. The assay was performed in a 384-well plate using a Tecan Spark 10M plate reader. […] Compounds were measured in triplicate. The data were fitted to a second-order reaction equation such that the rate constant (K) is the slope of ln([A][B0]/[B][A0]), where [A0] and [B0] are the initial concentrations of the compound (200 μM) and TNB^−2 (100 μM), respectively, and [A] and [B] are the remaining concentrations as a function of time as deduced from spectrometric measurements. Linear regression using Prism was performed to fit the rate against the first 7 h of measurements.

Pin1 Cys113 = molecular target: T2, Pin1 Cys113 (Homo sapiens, UniProt Q13526); experiment: Competitive isoTOP-ABPP in PATU-8988T cells; format: cell-based; details: for peptides labeled with an H/L ratio >2: out of about 3,000 cysteines identified
T2 construct: endogenous in cells
Experimental: FIGS. 11A-11E: Sulfamate acetamides as potent and selective Pin1 inhibitors. FIG. 11A. Chemical structures of the sulfonate and sulfamate compounds (4a-4g). FIG. 11B. Deconvoluted LC/MS spectrum for Pin1 (2 μM) incubated with 4 g at pH 7.5, 25° C., 1 h. The adduct mass corresponds to a labeling event in which the sulfamate group was released. FIG. 11C. Percent of Pin1 labeling (2 μM) with the probes (4a-4g; 2 μM; y-axis) compared to their intrinsic thiol reactivity as assessed by their rate of reaction in a DTNB assay (x-axis). FIG. 11D. Cellular engagement of the Sulfamates. OCI-AML2 cells were treated with DMSO, Sulfopin or sulfamate compounds (4c, 4d, 4g) at 0.5 and 2.5 μM concentration for 4 hours. Lysates were then incubated with a Sulfopin desthiobiotin (DTB) probe (1 μM), pulled down using streptavidin beads before running a western blot against Pin1. FIG. 11E. IsoDTB ABPP experiment with sulfopin and sulfamate compound 4d. […] The labeled peptides were pull-down with streptavidin beads and analysed by LC/MS/MS (similar protocol to BTK, see FIG. 521; n=4). Proteins in the box have a heavy to light (H/L) ratio ≥2. Only peptides detected in three out of four repetitions are presented.

Pin1 [5] = molecular target: T1, Pin1; experiment: Kinetics of Pin1 binding (KI and Kinact) by LC-MS; design: made in house; kinact: unit not given here; details: for Ki: read-out: K1 value (KI)
Source text: The reaction was monitored by LC-MS. FIGS. 17B and 17D. The rate constants as extrapolated from FIGS. 17A and 17C, respectively, as a function of the concentration of sulfopin and 4d.
Target sequence in this assay (Q13526 whole entry, the tested form may be a part): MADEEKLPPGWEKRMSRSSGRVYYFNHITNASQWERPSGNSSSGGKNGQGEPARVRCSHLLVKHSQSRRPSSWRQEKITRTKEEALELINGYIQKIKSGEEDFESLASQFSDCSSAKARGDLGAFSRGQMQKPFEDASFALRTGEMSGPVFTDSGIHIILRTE

[6] = Metabolic stability in liver microsomes; format: in vitro ADME; details: LC/MS/MS
Experimental: FIG. 14: Sulfamates compounds show high metabolic stability. Compounds (Sulfopin, 4d, 4e, and 4g) were incubated in liver microsomes and injected to LC/MS/MS at indicated time points. The peak intensities of the compounds were measured in UV spectra.

[7] = Pin1 0.5 μM, 100 mM Tris buffer pH 7.4, 14° C.

T2 sequence (Q13526 whole entry): as the sequence (Q13526 whole entry, the tested form may be a part) above

SMILES: CS(=O)(=O)CC(=O)NCc1ccccc1 [Compound 1i, N-benzyl-2-(methylsulfonyl)acetamide]
covalent bond formation with GSH [1]: did not form a covalent bond with GSH

SMILES: O=C(CS(=O)(=O)c1ccccc1)NCc1ccccc1 [Compound 1j, N-benzyl-2-(phenylsulfonyl)acetamide]
covalent bond formation with GSH [1]: did not form a covalent bond with GSH

SMILES: C#Cc1ccc(NC(=O)COS(=O)(=O)NCc2ccccc2)cc1 [Compound 2a, 2-((4-ethynylphenyl)amino)-2-oxoethyl Benzylsulfamate]
proteomic reactivity (proteins labeled) (Mino cells): enriching more proteins; also recorded: labeled a distinct protein that was not labeled by the chloroacetamide

SMILES: C#Cc1ccc(NC(=O)COS(=O)(=O)Nc2ccccc2)cc1 [Compound 2b, 2-((4-ethynylphenyl)amino)-2-oxoethyl Phenylsulfamate]
proteomic reactivity (proteins labeled) (Mino cells): low reactivity

SMILES: C#Cc1ccc(NC(=O)CCl)cc1 [Compound 2c, 2-chloro-N-(4-ethynylphenyl)acetamide]
proteomic reactivity (proteins labeled) (Mino cells): enriching more proteins

SMILES: CC(C)(C)CN(C(=O)COS(=O)(=O)Nc1ccc(Br)cc1)C1CCS(=O)(=O)C1 (centres unmarked) [Compound 4e, 2-((1,1-dioxidotetrahydrothiophen-3-yl)(neopentyl)amino)-2-oxoethyl (4-bromophenyl)sulfamate]
thiol reactivity relative to Sulfopin [4]: lower thiol reactivity than Sulfopin

Second part, led by results:

reactivity to GSH relative to chloroacetamide (1a) [1]: an order of magnitude less reactivity
SMILES: CNS(=O)(=O)OCC(=O)NCc1ccccc1 [Compound 1d, 2-(benzylamino)-2-oxoethyl Methylsulfamate]

reactivity to GSH relative to chloroacetamide (1a) [1]: an order of magnitude less reactivity
SMILES: O=C(COS(=O)(=O)NCc1ccccc1)NCc1ccccc1 [Compound 1e, 2-(benzylamino)-2-oxoethyl Benzylsulfamate]

hydrolysis in PBS buffer (FIG. 13) [2]: 15% | hydrolysis in PBS buffer [2]: 15% | Pin1 labeling by intact protein MS (Pin1 [3]): 18%
SMILES: CC(C)(C)CN(C(=O)COS(C)(=O)=O)C1CCS(=O)(=O)C1 (centres unmarked) [Compound 4a, 2-((1,1-dioxidotetrahydrothiophen-3-yl)(neopentyl)amino)-2-oxoethyl Methanesulfonate]

Pin1 labeling by intact protein MS (Pin1 [3]): 16%
SMILES: CNS(=O)(=O)OCC(=O)N(CC(C)(C)C)C1CCS(=O)(=O)C1 (centres unmarked) [Compound 4b, 2-((1,1-dioxidotetrahydrothiophen-3-yl)(neopentyl)amino)-2-oxoethyl Methylsulfamate]

Pin1 labeling by intact protein MS (Pin1 [3]): 56% | thiol reactivity relative to Sulfopin [4]: lower thiol reactivity than Sulfopin
SMILES: CC(C)(C)CN(C(=O)COS(=O)(=O)NCc1ccccc1)C1CCS(=O)(=O)C1 (centres unmarked) [Compound 4c, 2-((1,1-dioxidotetrahydrothiophen-3-yl)(neopentyl)amino)-2-oxoethyl Benzylsulfamate]

competition ratio (H/L) of Pin1 Cys113 (Pin1 Cys113): highest competition ratio | peptides labeled with an H/L ratio >2 (Pin1 Cys113): six | kinact (Pin1 [5]; [7]): 2.48 | Ki (Pin1 [5]; [7]): 43.6 µM | thiol reactivity relative to Sulfopin [4]: lower thiol reactivity than Sulfopin
SMILES: CC(C)(C)CN(C(=O)COS(=O)(=O)Nc1ccccc1)C1CCS(=O)(=O)C1 (centres unmarked) [Compound 4d, 2-((1,1-dioxidotetrahydrothiophen-3-yl)(neopentyl)amino)-2-oxoethyl Phenylsulfamate]
binding affinity to Pin1 relative to sulfopin (Pin1 [5]; KI of 4d versus sulfopin): five-times better K1 value; also recorded: five-fold higher binding affinity

Pin1 labeling by intact protein MS (Pin1 [3]): > 95% | thiol reactivity relative to Sulfopin [4]: slightly higher reactivity
SMILES: O=C(COS(=O)(=O)Nc1ccccc1)N(CC1CCCCC1)C1CCS(=O)(=O)C1 (centres unmarked) [Compound 4g, 2-((cyclohexylmethyl)(1,1-dioxidotetrahydrothiophen-3-yl)amino)-2-oxoethyl Phenylsulfamate]

hydrolysis in PBS buffer (FIG. 13) [2]: 30% | hydrolysis in PBS buffer [2]: 30% | Pin1 labeling by intact protein MS (Pin1 [3]): 59% | metabolic stability [6]: good metabolic stability | peptides labeled with an H/L ratio >2 (Pin1 Cys113): six | Ki (Pin1 [5]; [7]): 217 µM
SMILES: CC(C)(C)CN(C(=O)CCl)C1CCS(=O)(=O)C1 (centres unmarked) [Sulfopin, reference compound]
competition ratio (H/L) of Pin1 Cys113 (Pin1 Cys113): highest competition ratio; also recorded: more complete target engagement
